How the values were obtained:
DRB4 = target: T1, DRB4 (Homo sapiens, UniProt P01903+P13762); assay: HLA-DR peptide binding assay (competition), DRB4
T1 construct: endogenous in cells

DR3 = target: T2, DR3 (Homo sapiens, UniProt P01903+P01911, A100K/A102G/A103R/A169T/F55Y/I96L/K41T/L162R/M171V/P40S/Q125H/Q178H/Q39Y/R42S/S66N/T106N/T262R/W38E/Y61H); assay: HLA-DR peptide binding assay (competition), DR3
T2 construct: endogenous in cells

DRB5 = target: T3, DRB5 (Homo sapiens, UniProt P01903+Q30154); assay: HLA-DR peptide binding assay (competition), DRB5
T3 construct: endogenous in cells

DR7 = assay: HLA-DR peptide binding assay (competition), DR7; parameters: species or system human

`CC(C)C[C@H](NC(=O)[C@H](C)NC(=O)[C@H](CCCNC(=N)N)NC(=O)[C@@H]1CCCN1C(=O)CNC(=O)[C@H](Cc1c[nH]c2ccccc12)NC(=O)[C@H](CC(C)C)NC(=O)[C@H](Cc1ccccc1)NC(=O)[C@H](CCC(=O)O)NC(=O)[C@H](Cc1ccc(O)cc1)NC(=O)[C@H](CS)NC(=O)[C@H](C)N)C(=O)N[C@H](C(=O)N[C@@H](CCC(=O)O)C(=O)N[C@H](C(=O)N[C@@H](CO)C(=O)O)[C@@H](C)O)C(C)C` was tested, and the “Ratios IC50 MAGE-3/IC50 reference” value (DRB4) was 70, the “binding to purified HLA-DR molecules (in words)” value (“binding” below) (DRB4; DRB4, competition assay) was “bound” and the “binding” value (DR3; competition assay) was “No binding was observed”. For the same compound, the IC50 (DR3; competition with biotinylated MT 2-16 100 nM, pH 4.5, read-out: IC50 (nM) of MAGE-3267-282) was over 10000 nM, the “Ratios IC50 MAGE-3/IC50 reference” value (DRB5) was 11 and the “binding” value (DRB5; DRB5, competition assay) was “bound”. The “binding” value (DR7; competition assay) was “bound”, the IC50 (DR7; competition with biotinylated YKL 10 nM, pH 5, ± standard deviation, read-out: IC50 (nM) of MAGE-3267-282) was 1200 nM and the “Ratios IC50 MAGE-3/IC50 reference” value (DR7; ratio lower than 10 = high affinity, higher than 10 = intermediate binder) was 120.
